Results from patent US11000560B2, “Oncolytic adenoviruses with mutations in immunodominant adenovirus epitopes and their use in cancer treatment” (VCN B[…], priority 2015, dated 2021).

Test system: human HLA-A2.1
Test: HLA-A2.1 stabilization assay (RMA-S A2 cells)
Type: binding
Details: for HLA-A2 binding compared to unmodified counterpart: peptide 300 to 0.1 μM; for reduction of HLA-A2 binding compared to unmodified counterpart: from Kd values
Method: An HLA-A2.1 stabilization assay was used, with minor modifications from Takiguchi et al. (Takiguchi, M., Tissue Antigens. 2000 April; 55(4):296-302) (incorporated by reference herein in its entirety), to evaluate the binding affinity of mutated peptides. Murine cells expressing HLA-A2.1 (RMA-S A2 cells) were incubated for 18 h at 26° C. in order to allow for HLA-A2 surface expression in the absence of any peptide. Peptides were serially diluted 1:3 in a 96-well plate with a U shape bottom, starting with 300 μM up to 0.1 μM in 100 μl volume. 2.5e5 RMA-S A2 cells were added to each well in 100 μl volume. The mixture was incubated for 2 hours at 26° C. and then at 37° C. for 2 hours to allow unbound HLA-A2.1 to be internalized. Cells were spun for 3 minutes at 500 g and washed three times with PBS, FBS 5%, BSA 0.5%. Cells were incubated with 100 μl of the supernatant of hybridoma anti-HLA-A2.1 (PA2.1) and incubated for 30 minutes at 4° C. Cells were washed three times and then incubated with Alexa Fluor® 488 goat anti-mouse IgG (Molecular Probes®) at 1:500 dilution for 30 minutes at 4° C. Cells were washed three times and then analyzed with Gallios flow cytometer (Beckman Coulter). As a negative control, RMA-S A2 cells were incubated with a peptide having no affinity to HLA-A2.1 under the same experimental conditions. The fluorescence index was calculated using the formula: Fluorescein Index=(sample fluorescence−negative control fluorescence)/negative control fluorescence.
Using GraphPad Prism v5, Kd values were analyzed using a non-linear regression. A Kd value was obtained for each peptide that represents the binding constant in equilibrium with half of the maximum possible binding.

| Sequence | HLA-A2 binding compared to unmodified counterpart | reduction of HLA-A2 binding compared to unmodified counterpart |
| --- | --- | --- |
| YLNHTFKKA [V721A] | maintained the same level of binding |  |
| LLYANSAHS [A900S] | maintained the same level of binding |  |
| YVLFEVFDK [V925K] |  | ~600 times |
| GLVDCYINP [L520P] |  | more than 10 times |
